Legend:
[1] = tested on: SMN protein; experiment: SMN protein assay (MSD) in SMA patient fibroblasts (GM03813); assay type: cell-based, human
How it was run: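 SMA patient fibroblasts GM03813 (7000 cells/well) treated 48 h with compounds from 2.5 μM to 0.6 nM. Lysate SMN protein quantified by MSD immunoassay against an SMN standard curve (1 to 19.5 μg/ml) on each plate, giving absolute amounts.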

[2] = tested on: MDR1-MDCK cell monolayers; details: dog, MDCK-MDR1, 120 min, 5 μM, pH 7.4
[3] = tested on: MDR1; experiment: in vitro; details: dog; for Papp A→B at 120 min, 5 μM: MDCK-MDR1, pH 7.4, MDCK-MDR1: Papp A-B (10^−6, cm/s); for Papp B→A at 120 min, 5 μM: MDCK-MDR1, pH 7.4, MDCK-MDR1: Papp B-A (10^−6, cm/s)
[4] = tested on: MDR1 (P-gp); experiment: MDCK-MDR1 permeability assay, blood-brain-barrier penetration potential; details: dog, MDCK-MDR1, pH 7.4, MDCK-MDR1 Efflux Ratio

Row | Structure (SMILES) | EC50 [1] [nM] | MDCK-MDR1: % Recov A-B (%) [2] [%] | MDCK-MDR1: % Recov B-A (%) [2] [%] | Papp A→B at 120 min, 5 μM [3] [×10⁻⁶ cm/s] | Papp B→A at 120 min, 5 μM [3] [×10⁻⁶ cm/s] | efflux ratio at 120 min, 5 μM [4]
1 | COc1cc(-c2cc(O)c(-c3cnc(N(C)[C@@H]4CC5CC[C@H](N5)[C@@H]4F)cn3)cc2F)cc(F)n1 (single isomer, unassigned) [Compound 31E1] | 501 to 10000 | 58 | 65 | 0.48 | 0.8 | 2
2 | CN(c1cnc(-c2cc3oc(C(=O)N4CCC4)cc3cc2O)cn1)[C@@H]1CC2CC[C@H](N2)[C@@H]1F (single isomer, unassigned) [Compound 20E1] | 501 to 10000 | 83 | 101 | 2.71 | 56.4 | 21
3 | CN(c1cnc(-c2cc3ccc(OCF)nc3cc2O)cn1)[C@H]1C[C@@H]2CCC(N2)[C@H]1F (single isomer, unassigned) [Compound 19E2] | 501 to 10000 | 28 | 62 | 2.81 | 17.1 | 6
4 | Oc1cc(-c2cn[nH]c2)ccc1-c1cnc(O[C@H]2CC3CC[C@@H](N3)[C@H]2F)cn1 (single isomer, unassigned) [Compound 1E1] | 501 to 10000 | 68 | 82 | 8.22 | 33.4 | 4
5 | Cn1cc(-c2ccc(-c3cnc(N(C4CC4)[C@@H]4CC5CC[C@H](N5)[C@@H]4F)cn3)c(O)c2)cn1 (single isomer, unassigned) [Compound 49E1] | 501 to 10000 | 47 | 65 | 4.73 | 26.5 | 6
6 | CN(c1cnc(-c2cc3ccc(OCF)nc3cc2O)cn1)[C@@H]1CC2CC[C@H](N2)[C@@H]1F (single isomer, unassigned) [Compound 19E1] | 501 to 10000 | 24 | 57 | 2.13 | 18.6 | 9
7 | Cn1ccc(-c2cc(O)c(-c3cnc(N(C4CC4)[C@@H]4CC5CC[C@H](N5)[C@@H]4F)cn3)cc2F)cc1=O (single isomer, unassigned) [Compound 38E1] | 501 to 10000 | 81 | 94 | 1.47 | 54.9 | 37
8 | CN(c1cnc(-c2ccc(-c3cnn(C)c3)cc2O)cn1)[C@H]1C[C@@H]2COCC(N2)[C@H]1F (single isomer, unassigned) [Compound 73E2] | 501 to 10000 | 51 | 74 | 9.34 | 49.1 | 5
9 | CN(c1cnc(-c2cc(F)c(-c3ccn(CF)c(=O)c3)cc2O)cn1)[C@H]1C[C@@H]2CCC(N2)[C@H]1F (single isomer, unassigned) [Compound 32E2] | 16 to 50 | 86 | 88 | 2.58 | 51.2 | 20
10 | CN(c1cnc(-c2cc(F)c(-c3ccn(C)c(=O)c3)cc2O)cn1)[C@@H]1CC2CCC[C@H](N2)[C@@H]1F (single isomer, unassigned) [Compound 12E1] | 101 to 500 | 78 | 83 | 1.99 | 54.9 | 28
11 | Cn1cnc(-c2cc(O)c(-c3cnc(N(C4CC4)[C@@H]4CC5CC[C@H](N5)[C@@H]4F)cn3)cc2F)cc1=O (single isomer, unassigned) [Compound 50E1] | 501 to 10000 | 82 | 92 | 1.59 | 46.4 | 29
12 | O=c1cc(-c2ccc(-c3cnc(N(C4CC4)[C@H]4C[C@@H]5CCC(N5)[C@H]4F)cn3)c(O)c2)ccn1CF (single isomer, unassigned) [Compound 54E2] | 501 to 10000 | 63 | 67 | 1.81 | 44 | 24

— US11964971B2, “Methods and compositions for modulating splicing” (Skyhawk Therapeutics, Inc., priority 2019, dated 2024)
